Reference: US12167995B2, “[((1R,2S,5R)-2-isopropyl-5-methyl-cyclohexanecarbonyl)-amino]-acetic acid isopropyl ester for treatment of chronic cough” (AXALBION SA, priority 2019, dated 2024)

Columns and labels:
[1] = test system: refractory chronic cough (RCC); experiment: Clinical Trial 2: cough severity and associated sensations, 100 mm VAS; assay type: in vivo, human
Procedure: Cough Severity was scored on a 100 mm Visual Analog Scale (VAS) at the specified time points. The patient was asked to indicate their assessment by marking (e.g., with a pen) a position along a 100 mm line between two extremes, e.g., “no cough” and “worst cough”. Urge-to-cough was scored on a 100 mm VAS at the specified time points. Throat irritation was scored on a 100 mm VAS at the specified time points. Throat cooling was scored on a 100 mm VAS at the specified time points. At least 24 hours after the Baseline Visit cough monitor has been attached on Day 0, and preferably before 10 am, the following activities were performed by clinic staff (not specified by the order below): • Remove the Baseline Visit cough monitor. • Update medical history. • Record all concomitant medication use. • Inclusion/exclusion criteria review. • If all inclusion and exclusion criteria were met, enroll patient into study. • Vital signs: before dose and 4 hours after dose. • 12-lead ECG (before dose). • Laboratory tests: • Urine drugs-of-abuse testing. • Pharmacokinetic (PK) sample taken. • Provide subject with VAS diary and instruct them to complete VAS assessments at +5 and +6 hours at home (see below). • Before dosing, attach and activate Treatment Visit cough monitor. • Administer the dose of the study drug (preferably before 10 am). • Cough severity VAS assessment: • Prior to dose: • −30 minutes. • After dose: • +1, +2, +3, +4, +5, +6 hours. • Urge-to-cough VAS assessment: • Prior to dose: • −30 minutes. • After dose: • +1, +2, +3, +4, +5, +6 hours. • Throat irritancy VAS assessment: • Prior to dose: • −30 minutes. • After dose: • +1, +2, +3, +4, +5, +6 hours. • Throat cooling VAS assessment: • Prior to dose: • −30 minutes. • After dose: • +1, +2, +3, +4, +5, +6 hours. • GRCS assessment at 4 hours after dose. • Schedule Follow-Up Visit. • Once the Investigator confirmed it was safe to do so, the subject could leave the unit after the assessments 4 hours after dose were complete. At least 24 hours after the Treatment Visit cough monitor has been attached (on Day 1), the following activities were performed by clinic staff (not specified by the order below): • Remove the Treatment Visit cough monitor. • Collect and review the VAS diary for completeness. • Overall impression of the treatment day (24 hours) with: • Cough severity VAS assessment. • Urge-to-cough VAS assessment. • Throat irritancy VAS assessment. • Throat cooling VAS assessment. • GRCS assessment. • Record all adverse events. • Record all concomitant medication use. • Schedule End of Study visit. End of Study Visit (Visit 5): The following procedures and evaluations were performed at the clinic between Day 7 and 14. At this visit, the following procedures and assessments were performed by clinic staff (not specified by the order below): • Cough severity VAS assessment. • Urge-to-cough VAS assessment. • Throat irritancy VAS assessment. • GRCS assessment. • Vital signs. • Weight. • Physical examination. • 12-lead ECG. • Laboratory tests: • Hematology. • Chemistry. • Urinalysis. • Urine pregnancy test for females of childbearing potential. • Record all adverse events. • Record all concomitant medication use.

[2] = Clinical Trial 2: safety and tolerability in RCC patients; assay type: in vivo, human; details: single 5 mg ODT
Source text: Safety assessments consisted of monitoring and recording protocol-defined adverse events (AEs) and serious adverse events (SAEs); vital signs; physical examinations; clinical laboratory assessments; electrocardiograms (ECGs); and other protocol-specified tests that were deemed critical to the safety evaluation of the study drug.

## CC(C)OC(=O)CNC(=O)[C@@H]1C[C@H](C)CC[C@H]1C(C)C [AX-8, [((1R,2S,5R)-2-isopropyl-5-methyl-cyclohexanecarbonyl)-amino]-acetic acid isopropyl ester]
[1]; >24-hour period after treatment, n=11, Screening 51.5
  Urge-to-Cough VAS, Median, Follow-Up (Visit 4): 46.0 mm
[1]; >24-hour period after treatment, n=11, Screening 55.0
  Throat Irritation VAS, Median, Follow-Up (Visit 4): 9.0 mm
[1]; >24-hour period after treatment, n=11, Screening 61.5
  Cough Severity VAS, Median, Follow-Up (Visit 4): 47.0 mm
[1]; Day 7 to 14, n=11
  Cough Severity VAS, Median, End of Study (Visit 5): 64.0 mm
  Throat Irritation VAS, Median, End of Study (Visit 5): 47.0 mm
  Urge-to-Cough VAS, Median, End of Study (Visit 5): 57.0 mm
[1]; FIG. 8
  time of apparent maximum improvement in urge-to-cough: about 3 hours
[1]; FIG. 10
  throat cooling VAS time course: increase only at 30 minutes
[1]; hourly for 6 hours after treatment, FIG. 7
  cough severity VAS time course: reduction from the first hour that persisted for the 6 hours of monitoring
[1]; hourly for 6 hours after treatment, FIG. 8
  urge-to-cough VAS time course: improvement from the first hour that persisted for the 6 hours of monitoring
[1]; hourly for 6 hours after treatment, FIG. 9, baseline lower on treatment day
  throat irritation VAS time course: improvement from the first hour that persisted for the 6 hours of monitoring
[2]
  compound-related adverse effects: No compound-related adverse effects were observed
